Results on 26 compounds are retold here after patent US20120295923A1, “Aminocyclohexanes and Aminotetrahydropyrans and Related Compounds As Gamma-Secretase Modulators” (PFIZER INC., priority 2010, published 2012).

Broadly, the IC50 is the point on the concentration scale where inhibition reaches its midpoint.

Where a name gives a salt, the structure may show the parent alone. Read-outs that look alike come from different tables or passages of the source.

This test relates to γ-secretase; production of amyloid beta protein Aβ(1-42). Put plainly: Cell-Based γ-Secretase Assay with ELISA Readout. To be noted: human WT-APP overexpressing CHO cells. The procedure:
The ability of compounds to modulate production of amyloid beta protein A6(1-42) was determined using human WT-APP overexpressing CHO cells. Cells were plated at 22,000 cells/100 μL well in 96 well tissue culture treated, clear plates (Falcon) in DMEM/F12 based medium and incubated for 24 hours at 37° C. Compounds for testing were diluted in 100% DMSO to achieve an eleven points, half log, dose response for IC50 determinations. Compounds were added in fresh medium to achieve 1% final DMSO. Appropriate vehicle and inhibitor controls were added to obtain maximum and minimum inhibition values for the assay before the plates were incubated for about 24 hours at 37° C.
Coating of ELISA assay plates was initiated by addition of 50 μL/well of an in-house Aβ(1-42) specific antibody at (4 μg/mL) in 0.1 M NaHCO3 (pH 9.0) into black 384-well Maxisorp® plates (Nunc) and incubated overnight at 4° C. The capture antibody was then aspirated from the ELISA assay plates and 100 μL/well of Blocking Buffer (Dulbecco's PBS, 1.5% BSA (Sigma A7030)) added. Ambient temperature incubation was allowed to proceed for a minimum of two hours before washing 2×100 μL with Wash Buffer (Dulbecco's PBS, 0.05% Tween 20). Assay Buffer (Dulbecco's PBS, 1.0% BSA (Sigma A7030), 0.05% Tween 20) 20 μL/well was then added.
After incubation overnight at 37° C., 5% CO2, 40 μL (in duplicate) of experimental conditioned media were transferred into wells of the blocked ELISA plates containing the capture antibody, followed by overnight incubation at 4° C.
After overnight incubation of the ELISA assay plates at 4° C., unbound Aβ peptides were removed thorough (4×100 μL) washes with Wash Buffer. Europium (Eu) labeled (custom labeled, Perkin Elmer) Aβ(1-16) 6e10 Monoclonal Antibody (Covance #SIG-39320 was added, (50 μL/well Eu-6e10 @ 1:5000, 20 uM EDTA) in Assay Buffer. Incubation at ambient temperature for a minimum of 2 hours was followed by (4×100 μL) washes with Wash Buffer, before 50 μL/well of Delfia Enhancement Solution (PerkinElmer) was added. Following a one hour ambient temperature incubation, the plates were read on an EnVision plate reader (PerkinElmer) using standard DELFIA TRF settings. Data analysis including inhibitory IC50 determination was performed using nonlinear regression fit analysis (in-house software) and the appropriate plate mean values for the maximum and minimum inhibition controls.

[1] abbreviates: footnote 8: single determination, read-out: Aβ 42B IC50 (nM) (Geometric Mean of 2-8 Determinations).
Setting [2] is: geometric mean of 2 determinations unless otherwise indicated (footnote 2: 6-14 determinations), read-out: Aβ 42B IC50.

For the compound `CC(C)CCN(CCC(F)(F)F)[C@@H]1CC[C@@H](CC(=O)O)C[C@H]1c1ccc(C(F)(F)F)cc1` (racemic) [Example 9, {(1R,3S,4R)/ (1S,3R,4S)-4-[(3-methylbutyl) (3,3,3-trifluoropropyl)amino]-3-[4-(trifluoromethyl)phenyl]cyclohexyl} acetic acid, hydrochloride salt], the IC50 under setting [1] was determined as 618 nM.
For `CC(C)CCN(CCC(C)C)[C@@H]1CC[C@@H]([C@@H](C)C(=O)O)C[C@H]1c1ccc(C(F)(F)F)cc1` (single isomer, unassigned) [Example 7], under setting [2], the IC50 turned out to be 1750 nM.
On the same count and under the same terms, to `CC(C)CCN(CCC(C)C)[C@@H]1CC[C@@H]([C@H](C)C(=O)O)C[C@H]1c1ccc(C(F)(F)F)cc1` (single isomer, unassigned) [Example 8] belongs 1580 nM.
In the case of `CC(C)C[C@H](C)N(CC1CCCC1)[C@@H]1CC[C@@H](CC(=O)O)C[C@H]1c1ccc(C(F)(F)F)cc1` (single isomer, unassigned) [Example 56], the IC50 (geometric mean of 2-4 determinations unless otherwise indicated (footnote 10: 6-8; footnote 14: single determination), read-out: Aβ 42B IC50) was 544 nM.
In the case of `Cc1cc(Cl)ccc1[C@@H]1OC(CC(=O)O)CC[C@H]1N(CC1CCCC1)CC1CCCC1` (stereo in doubt) [Example 24, [(2R,5R,6S)-5-[bis(cyclopentyl-methyl)amino]-6-(4-chloro-2-methylphenyl)tetrahydro-2H-pyran-2-yl]acetic acid], the IC50 under setting [1] amounted to 9190 nM.
Turning to `O=C(O)C[C@@H]1CC[C@@H](N(CC2CCCC2)CC2CCCC2)[C@H](c2ccc(C(F)(F)F)cc2)C1` [Example 1, {(1R,3S,4R)-4-[bis(cyclopentylmethyl)amino]-3-[4-(trifluoromethyl)phenyl]cyclohexyl}acetic acid], the IC50 under setting [2] was found to be 229 nM.
For `O=C(O)C[C@@H]1CC[C@@H](N(Cc2ccccc2)CC2CCCC2)[C@H](c2ccc(C(F)(F)F)cc2)C1` [Example 2, {(1R,3S,4R)-4-[benzyl(cyclopentylmethyl)amino]-3-[4-(trifluoromethyl)phenyl]cyclohexyl}acetic acid], the IC50 under setting [2] came to 139 nM.
For `O=C(O)C[C@@H]1CC[C@@H](N(CC2CCCC2)CC2CCCC2)[C@H](c2ccc(C(F)(F)F)cc2)O1` [Example 3, {(2S,5R,6S)-5-[bis(cyclopentylmethyl)amino]-6-[4-(trifluoromethyl)phenyl]tetrahydro-2H-pyran-2-yl}acetic acid], the IC50 under setting [2] was 357 nM.
For `CC(C)CN(CC1CCCC1)[C@@H]1CC[C@@H](CC(=O)O)O[C@H]1c1ccc(C(F)(F)F)cc1` [Example 4, {(2S,5R,6S)-5-[(cyclopentylmethyl)(isobutyl)amino]-6-[4-(trifluoromethyl)phenyl]tetrahydro-2H-pyran-2-yl}acetic acid], under setting [2], the IC50 is 608 nM.
Still for that read-out and setting: to `O=C(O)C[C@@H]1CC[C@@H](N(CC2CCCC2)CC2CCCC2)[C@H](c2ccc(Cl)cc2)C1` [Example 6, [(1R,3S,4R)-4-[bis(cyclopentylmethyl)amino]-3-(4-chlorophenyl)cyclohexyl]acetic acid] belongs 719 nM.
In the case of `CC(C)CCN(CCC(F)(F)F)[C@@H]1CO[C@@H](CC(=O)O)C[C@H]1c1ccc(C(F)(F)F)cc1` [Example 10, 2-{(2R,4S,5S)-5-[(3-methylbutyl)(3,3,3-trifluoropropyl)amino]-4-[4-(trifluoromethyl)phenyl]tetrahydro-2H-pyran-2-yl} acetic acid, hydrochloride salt], the IC50 under setting [1] is 4770 nM.
As to `CC(C)CCN(CCC(F)(F)F)[C@@H]1CC[C@@H](CC(=O)O)C[C@H]1c1ccc(C(F)(F)F)cc1` [Example 11, {(1R,3S,4R)-4-[(3-methylbutyl) (3,3,3-trifluoropropyl)amino]-3-[4-(trifluoromethyl)phenyl]cyclohexyl} acetic acid, hydrochloride salt], the half-maximal inhibitory concentration (IC50) under setting [1] was found to be 470 nM.
On the same count and under the same terms, to `CC(C)CCN(CCC(F)(F)F)[C@@H]1CC[C@@H](CC(=O)O)C[C@H]1c1ccc(C(F)(F)F)nc1` [Example 12, {(1R,3S,4R)-4-[(3-methylbutyl) (3,3,3-trifluoro-propyl)amino]-3-[6-(trifluoromethyl)pyridin-3-yl]cyclohexyl}acetic acid] belongs 1370 nM; to `CC(C)CCN(CC1CCCCC1)[C@@H]1CC[C@@H](CC(=O)O)C[C@H]1c1ccc(C(F)(F)F)cc1` [Example 13, {(1R,3S,4R)-4-[(cyclohexylmethyl) (3-methylbutyl)amino]-3-[4-(trifluoromethyl)phenyl]cyclohexyl} acetic acid], 236 nM.
As to `CC(C)CCN(CC1(F)CCCCC1)[C@@H]1CC[C@@H](CC(=O)O)C[C@H]1c1ccc(C(F)(F)F)cc1` [Example 14, {(1R,3S,4R)-4-{[(1-fluorocyclo-hexyl)methyl](3-methylbutyl)amino}-3-[4-(trifluoromethyl)phenyl]cyclohexyl} acetic acid], under setting [1], the IC50 was determined as 103 nM.
For `O=C(O)C[C@@H]1CC[C@@H](N(CC2CCCCC2)CC2CCCCC2)[C@H](c2ccc(C(F)(F)F)cc2)C1` [Example 15, {(1R,3S,4R)-4-[bis(cyclohexylmethyl)amino]-3-[4-(trifluoro-methyl)phenyl]cyclohexyl}acetic acid], under setting [1], the IC50 came to 107 nM.
As for `CC(C)CCN(C1CCC(F)(F)CC1)[C@@H]1CC[C@@H](CC(=O)O)C[C@H]1c1ccc(C(F)(F)F)cc1` [Example 16, {(1R,3S,4R)-4-[(4,4-difluoro-cyclohexyl)(3-methylbutyl)amino]-3-[4-(trifluoromethyl)phenyl]cyclohexyl} acetic acid], the IC50 under setting [1] amounted to 496 nM.
With `CC(C)CCN(CC1CCCCO1)[C@@H]1CC[C@@H](CC(=O)O)C[C@H]1c1ccc(C(F)(F)F)cc1` (stereo partly drawn) [Example 17, {[1R,3S,4R)-4-[(3-methylbutyl) (tetrahydro-2H-pyran-2-ylmethyl)amino]-3-[4-(trifluoromethyl)phenyl]cyclohexyl} acetic acid], the IC50 under setting [1] was 1510 nM.
On the same count and under the same terms, then `O=C(O)C[C@@H]1CC[C@@H](N(CC2CCCC2)CC2CCCC2)[C@H](c2ccc(F)cc2)C1` [Example 18, [(1R,3S,4R)-4-[bis(cyclopentyl-methyl)amino]-3-(4-fluorophenyl)cyclohexyl]acetic acid], with 2630 nM; and `O=C(O)C[C@@H]1CC[C@@H](N(CC2CCCC2)CC2CCCC2)[C@H](c2ccc(C(F)(F)F)nc2)O1` [Example 19, {(2S,5R,6S)-5-[bis(cyclopentyl-methyl)amino]-6-[6-(trifluoromethyl)pyridin-3-yl]tetrahydro-2H-pyran-2-yl}acetic acid], with 837 nM; and `O=C(O)C[C@@H]1CC[C@@H](N(CC2CCCC2)CC2CCCC2)[C@H](c2cccc(C(F)(F)F)c2)O1` [Example 20, {(2S,5R,6S)-5-[bis(cyclopentyl-methyl)amino]-6-[3-(trifluoromethyl)phenyl]tetrahydro-2H-pyran-2-yl} acetic acid], with 959 nM.
On the same count and under the same terms, to `CC1(CN(CC2CCCC2)[C@@H]2CC[C@@H](CC(=O)O)C[C@H]2c2ccc(C(F)(F)F)cc2)CCCC1` [Example 21, {(1R,3S,4R)-4-{(cyclopentyl-methyl)[(1-methylcyclo-pentyl)methyl]amino}-3-[4-(trifluoromethyl)phenyl]cyclohexyl} acetic acid] belongs 435 nM; to `O=C(O)C[C@H]1CC[C@@H](N(CC2CCCC2)CC2CCCC2)[C@H](c2ccc(C(F)(F)F)cc2)O1` [Example 22, {(2R,5R,6S)-5-[bis(cyclopentyl-methyl)amino]-6-[4-(trifluoromethyl)phenyl]tetrahydro-2H-pyran-2-yl} acetic acid], 6390 nM.
Still for that read-out and setting: to `CC1CN([C@@H]2CC[C@@H](CC(=O)O)C[C@H]2c2ccc(C(F)(F)F)cc2)CC2(CCCCC2)C1` (stereo partly drawn) [Example 23, {(1R,3S,4R)-4-(4-methyl-2-azaspiro[5.5]undec-2-yl)-3-[4-(trifluoromethyl)phenyl]cyclohexyl} acetic acid] belongs 868 nM; to `O=C(O)C[C@@H]1CC[C@@H](N2C[C@@H]3CC[C@@H](C3)C2)[C@H](c2ccc(C(F)(F)F)cc2)C1` [Example 25, {(1R,3S,4R)-4-[(1R,5S)-3-azabicyclo[3.2.1]oct-3-yl]-3-[4-(trifluoromethyl)phenyl]cyclohexyl} acetic acid], 8840 nM.
Regarding `O=C(O)C[C@@H]1CC[C@@H](N(Cc2ccc(F)cc2)CC2CCCC2)[C@H](c2ccc(C(F)(F)F)cc2)C1` [Example 26, {(1R,3S,4R)-4-[(cyclopentyl-methyl)(4-fluorobenzyl)amino]-3-[4-(trifluoromethyl)phenyl]cyclohexyl} acetic acid], the IC50 under setting [1] was 190 nM.
